Experimental findings from PMC11190219 (2024) are described below.

The subject of assay [1] is c-KIT1 (DNA, G4) GGGAGGGCGCTGGGAGGAGGG
Description: fluorescence titration (ligand emission). The following applies: K+ 60 mM (potassium cacodylate); pH 7.4, room temperature, 2.5 µM TBP2, Hill-1 fit, apparent.

Assay [2] relates to c-KIT2 (DNA, G4) GGGCGGGCGCTAGGGAGGGG
The assay can be described thus: fluorescence titration (ligand emission). The following applies: K+ 60 mM (potassium cacodylate); pH 7.4, room temperature, 2.5 µM TBP2, Hill-1 fit, apparent.

Assay [3] deals with FAM-c-KIT1-TAMRA (DNA, G4) GGGAGGGCGCTGGGAGGAGGG
Description: FRET melting. The following applies: K+ 60 mM (potassium cacodylate); pH 7.4, 2 µM compound, 0.2 µM DNA.

Assay [4] deals with FAM-c-KIT2-TAMRA (DNA, G4) GGGCGGGCGCTAGGGAGGGG
Description: FRET melting. The following applies: K+ 60 mM (potassium cacodylate); pH 7.4, 2 µM compound, 0.2 µM DNA.

For assay [5], the system named is BCL-2 (DNA, G4) GGGCGCGGGAGGAATTGGGCGGG
Description: fluorescence titration (ligand emission). The conditions noted are these: K+ 60 mM (potassium cacodylate); pH 7.4, room temperature, 2.5 µM TBP2, Hill-1 fit, apparent.

Assay [6] relates to FAM-BCL-2-TAMRA (DNA, G4) GGGCGCGGGAGGAATTGGGCGGG
Description: FRET melting. The following applies: K+ 60 mM (potassium cacodylate); pH 7.4, 2 µM compound, 0.2 µM DNA.

Assay [7] concerns c-MYC22 (NMR) (DNA, G4) TGAGGGTGGGTAGGGTGGGTAA
The assay can be described thus: 1D 1H NMR titration. The conditions noted are these: K+ 100 mM; 25 mM Tris-HCl, pH 7.4, 100 µM DNA, 5-7.5% d6-DMSO.

The test system of assay [8] is h-TELO (DNA, G4) TTGGGTTAGGGTTAGGGATTAGGGA
Description: fluorescence titration (ligand emission). The following applies: K+ 60 mM (potassium cacodylate); pH 7.4, room temperature, 2.5 µM TBP2, Hill-1 fit, apparent.

Consider `CN(C)CCCNC(=O)c1csc(NC(=O)c2csc(NC(=O)CCCc3cn(CCNC(=O)c4csc(NC(=O)c5csc(N)n5)n4)nn3)n2)n1`, for which the Kd is given as 9.5 µM in assay [1], 9.2 µM in assay [2], 10.2 µM in assay [5] and 8.2 µM in assay [8]. For the same compound, the ΔTM in assay [3] was determined as 1.3 ± 0.1 °C; in assay [4], 4.1 ± 0.2 °C; in assay [6], 3.8 ± 0.2 °C. Besides, in assay [7], the binding entry is on record as “yes”.

For the compound `CN(C)CCCNC(=O)c1csc(NC(=O)c2csc(NC(=O)CCCc3cn(CCNC(=O)c4csc(NC(=O)c5csc(NC(=O)OC(C)(C)C)n5)n4)nn3)n2)n1`, the ΔTM in assay [3] was 0 °C; in assay [4], 0.5 ± 0 °C; in assay [6], 1 ± 0 °C.
